Measurements from ChEMBL document CHEMBL1129128, “Synthesis of divalent -D-mannopyranosylated clusters having enhanced binding affinities towards concanavalin A and pea lectins” (Bioorg Med Chem Lett, 1996).
pIC50: −log10 of the molar value.

Columns and labels:
Saccharomyces cerevisiae [1] = assay: Inhibition of binding of pea lectins to yeast mannan by compound was measured using peroxidase-labeled lectin assay, activity expressed relative to 2-Hydroxymethyl-6-methoxy-tetrahydro-pyran-3,4,5-triol
[2] = Inhibition of binding of concanavalin A to yeast mannan by compound was measured using peroxidase-labeled lectin assay,; parameters: species or system Saccharomyces cerevisiae
Saccharomyces cerevisiae [3] = assay: Inhibition of binding of concanavalin A to yeast mannan by compound was measured using peroxidase-labeled lectin assay, expressed relative to 2-Hydroxymethyl-6-methoxy-tetrahydro-pyran-3,4,5-triol
[4] = Inhibition of binding of pea lectins to yeast mannan by compound was measured using peroxidase-labeled lectin assay; parameters: species or system Saccharomyces cerevisiae

Row | Compound | Relative potency (Saccharomyces cerevisiae [1]) | pIC50 [2] | Relative potency (Saccharomyces cerevisiae [3]) | pIC50 [4]
1 | O=C(CCCCC/N=C(\S)Nc1ccc(O[C@H]2O[C@@H](CO)[C@@H](O)[C@H](O)[C@H]2O)cc1)Nc1cc(NC(=O)CCCCC/N=C(\S)Nc2ccc(O[C@H]3O[C@@H](CO)[C@@H](O)[C@H](O)[C@H]3O)cc2)cc(C(=O)O)c1 | 6.7 | 4.43 | 25 | 3.24
2 | O=[N+]([O-])c1ccc(O[C@H]2O[C@H](CO)[C@@H](O)[C@H](O)[C@H]2O)cc1 | 2.6 | 3.97 | 8.7 | < 2.82
3 | C=CCO[C@H]1O[C@@H](CO)[C@@H](O)[C@H](O)[C@H]1O | 4.1 | 3.58 | 3.5 | 3.03
4 | CO[C@H]1O[C@H](CO)[C@@H](O)[C@H](O)[C@H]1O | 1 | 3.03 | 1 | 2.41

The next compounds have a higher pIC50 [2] than those just listed; values first:

Row | Relative potency (Saccharomyces cerevisiae [1]) | pIC50 [2] | Relative potency (Saccharomyces cerevisiae [3]) | pIC50 [4] | Compound
5 | 20.8 | 4.52 | 30.3 | 3.73 | O=C(O)c1cc(N/C(S)=N/CCSCCCO[C@H]2O[C@@H](CO)[C@@H](O)[C@H](O)[C@H]2O)cc(N/C(S)=N/CCSCCCO[C@H]2O[C@@H](CO)[C@@H](O)[C@H](O)[C@H]2O)c1
6 | 29.8 | 5.17 | 138 | 3.89 | COC(=O)c1cc(N/C(S)=N/CCSCCCO[C@H]2O[C@@H](CO)[C@@H](O)[C@H](O)[C@H]2O)cc(N/C(S)=N/CCSCCCO[C@H]2O[C@@H](CO)[C@@H](O)[C@H](O)[C@H]2O)c1
